Test results reported in ChEMBL document CHEMBL1201862, “PubChem BioAssay data set” (2004).
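Following 48 hours of exposure in 96-well plates, responses at five concentrations were used to interpolate endpoints linearly. Here, GI50 denotes the concentration required for 50% inhibition of growth.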 The source made the active and inactive calls. Cut-off read from the data, not from the text of the source: active = GI50 up to about 1.1 µM and inactive = higher.

What was measured:
Assay in all cases: growth of human tumour cells (NCI), 48 h
[1] = system: CAKI-1
[2] = system: NCI-H522
[3] = system: EKVX
[4] = system: UO-31
[5] = system: KM12
[6] = system: SF-268
[7] = system: MDA-MB-231
[8] = system: M14
[9] = system: SF-295
[10] = system: DU-145
[11] = system: UACC-62
[12] = system: U-251
[13] = system: HOP-62
[14] = system: NCI/ADR-RES
[15] = system: HCC 2998
[16] = system: IGROV-1
[17] = system: BT-549
[18] = system: NCI-H226
[19] = system: RPMI-8226
[20] = system: HCT-15
[21] = system: CCRF-CEM
[22] = system: MDA-N
[23] = system: SNB-19
[24] = system: SNB-75
[25] = system: UACC-257
[26] = system: T47D
[27] = system: Malme-3M
[28] = system: SK-MEL-5
[29] = system: SN12C
[30] = system: OVCAR-8
[31] = system: SK-OV-3
[32] = system: OVCAR-4
[33] = system: OVCAR-3
[34] = system: SK-MEL-28
[35] = system: SW-620
[36] = system: NCI-H23
[37] = system: SK-MEL-2
[38] = system: MCF7
[39] = system: SF-539
[40] = system: OVCAR-5
[41] = system: RXF 393
[42] = system: HOP-92
[43] = system: LOX IMVI
[44] = system: COLO 205
[45] = system: TK-10
[46] = system: A498
[47] = system: PC-3
[48] = system: A549
[49] = system: 786-0
[50] = system: SR
[51] = system: Hs-578T
[52] = system: HCT-116
[53] = system: NCI-H460
[54] = system: ACHN
[55] = system: MDA-MB-435
[56] = system: K562
[57] = system: MOLT-4
[58] = system: HT-29

Compound: O=c1c2ccccc2oc2nc3n(c(=O)c12)CCCS3
- GI50 [1]: > 100 µM (inactive)
- GI50 [2]: > 100 µM (inactive)
- GI50 [3]: > 100 µM (inactive)
- GI50 [4]: 15.7 µM (inactive)
- GI50 [5]: > 100 µM (inactive)
- GI50 [6]: > 100 µM (inactive)
- GI50 [7]: > 100 µM (inactive)
- GI50 [8]: > 100 µM (inactive)
- GI50 [9]: > 100 µM (inactive)
- GI50 [10]: > 100 µM (inactive)
- GI50 [11]: > 100 µM (inactive)
- GI50 [12]: > 100 µM (inactive)
- GI50 [13]: > 100 µM (inactive)
- GI50 [14]: > 100 µM (inactive)
- GI50 [15]: > 100 µM (inactive)
- GI50 [16]: > 100 µM (inactive)
- GI50 [17]: > 100 µM (inactive)
- GI50 [18]: > 100 µM (inactive)
- GI50 [19]: > 100 µM (inactive)
- GI50 [20]: > 100 µM
- GI50 [21]: > 100 µM (inactive)
- GI50 [22]: > 100 µM (inactive)
- GI50 [23]: > 100 µM (inactive)
- GI50 [24]: 63.4 µM (inactive)
- GI50 [25]: > 100 µM (inactive)
- GI50 [26]: > 100 µM (inactive)
- GI50 [27]: > 100 µM (inactive)
- GI50 [28]: > 100 µM (inactive)
- GI50 [29]: > 100 µM (inactive)
- GI50 [30]: > 100 µM (inactive)
- GI50 [31]: > 100 µM (inactive)
- GI50 [32]: > 100 µM (inactive)
- GI50 [33]: > 100 µM (inactive)
- GI50 [34]: > 100 µM (inactive)
- GI50 [35]: > 100 µM (inactive)
- GI50 [36]: > 100 µM (inactive)
- GI50 [37]: > 100 µM (inactive)
- GI50 [38]: > 100 µM (inactive)
- GI50 [39]: > 100 µM (inactive)
- GI50 [40]: > 100 µM (inactive)
- GI50 [41]: > 100 µM (inactive)
- GI50 [42]: > 100 µM (inactive)
- GI50 [43]: > 100 µM (inactive)
- GI50 [44]: > 100 µM (inactive)
- GI50 [45]: > 100 µM (inactive)
- GI50 [46]: > 100 µM (inactive)
- GI50 [47]: > 100 µM (inactive)
- GI50 [48]: > 100 µM (inactive)
- GI50 [49]: > 100 µM (inactive)
- GI50 [50]: > 100 µM (inactive)
- GI50 [51]: > 100 µM (inactive)
- GI50 [52]: > 100 µM (inactive)
- GI50 [53]: > 100 µM (inactive)
- GI50 [54]: > 100 µM (inactive)
- GI50 [55]: > 100 µM (inactive)
- GI50 [56]: > 100 µM (inactive)
- GI50 [57]: > 100 µM (inactive)

Compound: COc1ccc(C2CC(c3ccc4ccccc4c3O)=NN2C(C)=O)cc1OC (configuration not stated)
- GI50 [58]: > 100 µM (inactive)
- GI50 [1]: > 100 µM (inactive)
- GI50 [2]: > 100 µM (inactive)
- GI50 [4]: > 100 µM (inactive)
- GI50 [5]: > 100 µM (inactive)
- GI50 [6]: 61.7 µM (inactive)
- GI50 [7]: > 100 µM (inactive)
- GI50 [8]: > 100 µM (inactive)
- GI50 [9]: > 100 µM (inactive)
- GI50 [10]: > 100 µM (inactive)
- GI50 [11]: 75.9 µM (inactive)
- GI50 [12]: > 100 µM (inactive)
- GI50 [13]: > 100 µM (inactive)
- GI50 [14]: > 100 µM (inactive)
- GI50 [15]: > 100 µM (inactive)
- GI50 [16]: > 100 µM (inactive)
- GI50 [17]: > 100 µM (inactive)
- GI50 [18]: > 100 µM (inactive)
- GI50 [19]: > 100 µM (inactive)
- GI50 [20]: > 100 µM
- GI50 [21]: 18.8 µM (inactive)
- GI50 [22]: > 100 µM (inactive)
- GI50 [24]: > 100 µM (inactive)
- GI50 [25]: > 100 µM (inactive)
- GI50 [26]: > 100 µM (inactive)
- GI50 [27]: > 100 µM (inactive)
- GI50 [28]: > 100 µM (inactive)
- GI50 [29]: > 100 µM (inactive)
- GI50 [30]: > 100 µM (inactive)
- GI50 [31]: > 100 µM (inactive)
- GI50 [32]: > 100 µM (inactive)
- GI50 [33]: > 100 µM (inactive)
- GI50 [34]: > 100 µM (inactive)
- GI50 [35]: > 100 µM (inactive)
- GI50 [36]: > 100 µM (inactive)
- GI50 [37]: > 100 µM (inactive)
- GI50 [38]: > 100 µM (inactive)
- GI50 [39]: > 100 µM (inactive)
- GI50 [40]: > 100 µM (inactive)
- GI50 [41]: > 100 µM (inactive)
- GI50 [42]: > 100 µM (inactive)
- GI50 [44]: > 100 µM (inactive)
- GI50 [45]: > 100 µM (inactive)
- GI50 [46]: > 100 µM (inactive)
- GI50 [47]: > 100 µM (inactive)
- GI50 [48]: > 100 µM (inactive)
- GI50 [49]: > 100 µM (inactive)
- GI50 [50]: 19.1 µM (inactive)
- GI50 [51]: 71.1 µM (inactive)
- GI50 [52]: > 100 µM (inactive)
- GI50 [53]: > 100 µM (inactive)
- GI50 [54]: > 100 µM (inactive)
- GI50 [55]: > 100 µM (inactive)
- GI50 [56]: 78.5 µM (inactive)
- GI50 [57]: 55.1 µM (inactive)
